Test [1] deals with T1, endogenous wild-type H-Ras protein (Mus musculus, UniProt Q61411).
T1 construct: an endogenous wild-type K-Ras protein and wild-type H-Ras protein; from tissue; host or cells: mouse pancreas and colon
The test is described as follows: Degradation of endogenous wild-type H-Ras protein in mouse pancreas and colorectal tissue, Western blot analysis. It is filed as in vivo. The settings on record: C57BL/6J mice, intraperitoneal, 48 hours, FIG. 8. On the procedure: (§1) In Example 9, in a mouse individual to which TUS-007 had been administered, the degradation (knockdown) of an endogenous wild-type K-Ras protein and wild-type H-Ras protein was evaluated by Western blot analysis.
(§2) TUS-007 was dissolved in DMSO, and then dissolved in corn oil so that the concentration of DMSO was 10 vol %, and then intraperitoneally administered to C57BL/6J wild-type mice (8 to 9 weeks old, male) (CLEA Japan, Inc.) in an amount of 40 mg/kg body weight or 80 mg/kg body weight (n=3 to 4). Furthermore, in addition to a group in which TUS-007 was administered, a group in which Ras-SOS had been administered in a dose of 80 mg/kg body weight was prepared. As a control, an injection carrier (corn oil containing 10 vol % DMSO) was used. The mice were kept under an environment of ad libitum access to food and water. The mice were dissected under deep anesthesia 48 hours after administration. The pancreas and colon were excised, and flash frozen in liquid nitrogen.
(§3) The frozen pancreas and colon were each triturated, and then TKM tissue lysis buffer (50 mM triethanolamine (pH 7.8), 50 mM KCl, 5 mM MgCl2, 0.25 M sucrose, 1 mM PMSF, Protein Inhibitors Cocktail-EDTA free (Nacalai Tesque, Inc.), 1 mM DTT, and a recombinant RNase inhibitor (0.2 U/μL, Takara Bio) were added, and subjected to centrifugation (at 13800 rpm×30 minutes, 4° C.), and the supernatants (pancreatic tissue extract and colorectal tissue extract) were collected. The concentration of the extracted proteins was quantified with a spectrophotometer.
(§4) Each tissue extract collected was subjected to Western blot analysis. […]
(§5) After electrophoresis, proteins were transferred to a PVDF membrane (Immobion™-P, Millipore) under conditions of 200 mA and 90 minutes using a tank-type blotting device and a transfer buffer (25 mM Tris-HCl, 195 mM glycine, 0.01% SDS, 15% methanol). […] Subsequently, the membrane was treated with a chemiluminescence reagent Immobilon™ Western (Millipore), and then chemiluminescence was detected using a lumino image analyzer LAS-3000 (FUJIFILM Corporation).
(In general: In western blotting, separated proteins are transferred to a membrane and probed.)

In the next test the target is T2, SOS1 protein (Homo sapiens, UniProt Q07889).
T2 construct: endogenous in cells; host or cells: HeLa
T2 sequence (Q07889 1-1333): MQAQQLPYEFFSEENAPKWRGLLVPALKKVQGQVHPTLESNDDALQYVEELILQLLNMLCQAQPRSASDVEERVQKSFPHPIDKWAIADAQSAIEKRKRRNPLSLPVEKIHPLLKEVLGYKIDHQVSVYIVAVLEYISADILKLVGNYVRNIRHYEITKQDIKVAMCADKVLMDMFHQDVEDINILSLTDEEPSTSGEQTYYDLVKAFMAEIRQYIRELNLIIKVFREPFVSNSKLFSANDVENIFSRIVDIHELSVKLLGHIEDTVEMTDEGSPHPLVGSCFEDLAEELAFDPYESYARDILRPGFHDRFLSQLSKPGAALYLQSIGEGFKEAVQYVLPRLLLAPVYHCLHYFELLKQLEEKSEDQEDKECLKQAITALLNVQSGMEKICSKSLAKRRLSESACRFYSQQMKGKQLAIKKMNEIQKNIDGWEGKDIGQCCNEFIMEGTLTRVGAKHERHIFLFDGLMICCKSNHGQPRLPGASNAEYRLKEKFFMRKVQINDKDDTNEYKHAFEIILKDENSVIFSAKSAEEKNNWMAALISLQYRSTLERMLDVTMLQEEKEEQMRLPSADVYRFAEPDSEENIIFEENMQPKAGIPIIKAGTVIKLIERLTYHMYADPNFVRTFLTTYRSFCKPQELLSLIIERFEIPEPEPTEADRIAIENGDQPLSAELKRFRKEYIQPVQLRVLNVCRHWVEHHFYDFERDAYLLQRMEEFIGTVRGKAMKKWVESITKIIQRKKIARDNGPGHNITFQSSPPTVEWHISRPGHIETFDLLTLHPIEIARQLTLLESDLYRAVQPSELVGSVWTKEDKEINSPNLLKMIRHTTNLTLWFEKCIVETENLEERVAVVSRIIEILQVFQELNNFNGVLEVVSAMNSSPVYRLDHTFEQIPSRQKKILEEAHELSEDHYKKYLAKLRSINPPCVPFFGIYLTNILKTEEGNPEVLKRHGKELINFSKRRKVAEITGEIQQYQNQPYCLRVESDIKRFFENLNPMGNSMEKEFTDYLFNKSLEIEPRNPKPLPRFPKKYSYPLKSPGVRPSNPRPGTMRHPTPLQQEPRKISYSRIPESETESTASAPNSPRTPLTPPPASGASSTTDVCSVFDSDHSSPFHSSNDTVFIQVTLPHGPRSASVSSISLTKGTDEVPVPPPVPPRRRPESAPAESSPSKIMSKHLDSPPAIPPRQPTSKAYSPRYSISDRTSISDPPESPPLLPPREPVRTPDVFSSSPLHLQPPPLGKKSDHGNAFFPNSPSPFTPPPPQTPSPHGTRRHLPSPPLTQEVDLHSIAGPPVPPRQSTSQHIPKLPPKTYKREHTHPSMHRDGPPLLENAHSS
The test is described as follows: Amount of SOS1 protein in HeLa cells, Western blot analysis. It is filed as cell-based. The settings on record: 48 hours after addition, vs control (DMSO), FIG. 5.

Test [2] has as its target T3, endogenous wild-type K-Ras protein (Mus musculus, UniProt P32883).
T3 construct: an endogenous wild-type K-Ras protein and wild-type H-Ras protein; from tissue; host or cells: mouse pancreas and colon
The test is described as follows: Degradation of endogenous wild-type K-Ras protein in mouse pancreas and colorectal tissue, Western blot analysis. It is filed as in vivo. The settings on record: C57BL/6J mice, intraperitoneal, 48 hours, FIG. 8. The procedure:
as §1, §2, §3, §4, §5

Where [3] appears, read: 40 or 80 mg/kg, pancreatic tissue.
The mark [4] stands for this setting: TUS-007 40 or 80 mg/kg, Ras-SOS 80 mg/kg, pancreas and colon.

T1 sequence (Q61411 whole entry): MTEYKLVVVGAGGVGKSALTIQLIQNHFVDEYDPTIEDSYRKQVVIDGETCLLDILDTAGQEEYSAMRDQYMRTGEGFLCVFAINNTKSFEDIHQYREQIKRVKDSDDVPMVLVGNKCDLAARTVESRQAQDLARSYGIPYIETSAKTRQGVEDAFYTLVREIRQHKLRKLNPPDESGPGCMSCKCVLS
T3 sequence (P32883 whole entry): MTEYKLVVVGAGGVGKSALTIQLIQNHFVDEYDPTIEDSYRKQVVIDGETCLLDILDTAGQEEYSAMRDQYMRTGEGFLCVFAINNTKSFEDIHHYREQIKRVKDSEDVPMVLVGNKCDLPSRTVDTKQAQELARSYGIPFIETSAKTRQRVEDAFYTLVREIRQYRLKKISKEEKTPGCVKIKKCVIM

For `CCC(C)[C@H](NC(=O)CCCCCCNC(=O)[C@H](CC(C)C)NC(=O)CNC(=O)c1cc(Cl)ccc1Cl)C(=O)Nc1ccc2[nH]c(Cc3c[nH]c4ccccc34)nc2c1` (stereo in doubt) [TUS-007], the “amount of the endogenous wild-type H-Ras protein in the pancreatic tissue (Western blot)” value in test [1] (setting [3]) was “remarkably reduced in the pancreatic tissue”. Moreover, the “amount of the endogenous wild-type H-Ras protein in mouse tissues (Western blot)” value in test [1] (setting [4]) was “reduced in a concentration-dependent manner”. Besides, the “amount of the SOS1 protein (Western blot)” value on SOS1 protein is listed as “the amount of the SOS1 protein was not reduced”. Further, the “amount of the endogenous wild-type K-Ras protein in the pancreatic tissue (Western blot)” value in test [2] (setting [3]) was “remarkably reduced in the pancreatic tissue”. Also, the “amount of the endogenous wild-type K-Ras protein in mouse tissues (Western blot)” value in test [2] (setting [4]) is “reduced in a concentration-dependent manner”.

The values above are taken from patent publication US11052154B2, “Ras protein degradation inducing molecule and pharmaceutical composition” (Tokyo University of Science Foundation, priority 2016, dated 2021).
